Experiment [1] can be described thus: Clinical study: logMAR visual acuity. Format: in vivo, human. The settings on record: U group. As to the method: (§1) A prospective, randomized, placebo-controlled study was performed for forty-eight eyes with GA which had not a recurrence of exudative AND for at least 6 months after receiving the treatment for exudative AND. The eyes of the treatment group received two drops of 0.15% isopropyl unoprostone (IU) three times a day for 54 weeks. Participants were examined before starting the study (baseline) and at 4, 8, 12, 24, 36, and 54 weeks to measure GA area, the change in GA, the GA enlargement rate and the logarithm of the minimum angle of resolution (logMAR) visual acuity. The placebo group eyes received the vehicle 3 times a day.
(§2) Two drops of the test drug or the placebo (vehicle) were administered at 5 minute intervals to the eyes three times a day, i.e. morning, afternoon, and night.
(§3) Study duration: 54 weeks.
(§4) The participants were examined to measure the following items at enrollment (baseline) and at 4, 8, 12, 24, 36 and 54 weeks.
Visual acuity was examined and the obtained value was converted the logarithm of the minimum angle of resolution (LogMar) to give logMar visual acuity.

The test system of another experiment is geographic atrophy (GA). Put plainly: Clinical study: GA area by fundus autofluorescence imaging (RegionFinder). Format: in vivo, human. The procedure: as §1, §2, §3, §4
Fundus autofluorescence images were obtained using BluePeak™ blue laser fundus autofluorescence (FAF) and confocal scanning laser ophthalmoscopy reflectance (OSLO). Hypofluorescent areas that reflect decreased autofluorescence were defined as GA areas. In detail, digital images obtained as above were calibrated and analyzed using RegionFinder™ software (version 2.4, Heidelberg Engineering, Germany) to define and quantify GA areas. Obtaining the fundus autofluorescence images, analyzing the obtained images and defining GA areas were performed according to the manuals of the equipment and software.
At each measurement time, the GA size, the change in GA area from the baseline and the GA enlargement rate from the baseline were determined.

Take `CCCCCCCC(=O)CC[C@@H]1[C@@H](C/C=C\CCCC(=O)OC(C)C)[C@@H](O)C[C@H]1O` [isopropyl unoprostone, 13,14-dihydro-15-keto-20-ethyl F2α isopropyl ester]: the “logMAR visual acuity, trend over time” value in experiment [1] (over the study, no statistically significant difference over the baseline) is listed as “tended to improve over time”. The “logMAR visual acuity at week 4” value in experiment [1] (week 4, baseline 0.39±0.39, p=0.62 vs P group) was 0.33±0.34. Moreover, the “logMAR visual acuity at week 54” value in experiment [1] (week 54, baseline 0.39±0.39, p=0.27 vs P group) was found to be 0.37±0.34. Besides, in the experiment with geographic atrophy (GA) (U group (24 eyes), 0.15% eye drops two drops three times a day, 54 weeks, change from baseline (baseline 2.71±2.03 mm^2), p<0.001 vs placebo), the “mean change in GA area at week 54” value amounted to 0.44±0.39 mm^2. The “enlargement of GA (conclusion)” value with geographic atrophy (GA) (eye drops, 54 weeks, vs placebo) was “could suppress the enlargement of GA”. For the same compound, the “change in geographic atrophy (GA) area (conclusion)” value in the experiment with geographic atrophy (GA) (patients who developed GA after treatment for exudative AMD, eye drops) was “statistically significant suppression”. Further, the “GA enlargement rate at 54 week” value in the experiment with geographic atrophy (GA) (representative U group case, person with typical AMD, left eye, 0.15% eye drops, two drops three times a day, vs baseline) was 118%. Moreover, the “GA area, difference between U and P groups” value in the experiment on geographic atrophy (GA) (throughout the study) is “no statistically significant difference”.

For the origin of these results see patent US20170042908A1, “METHOD FOR TREATING GEOGRAPHIC ATROPHY ASSOCIATED WITH AGE-RELATED MACULAR DEGENERATION” (NATIONAL UNIVERSITY CORPORATION KAGAWA UNIVERSITY, priority 2014, published 2017).
